In US11813340B2, “PSMA targeted radiohalogenated urea-polyaminocarboxylates for cancer radiotherapy” (The Johns Hopkins University, priority 2018, dated 2023):
Where two headings read alike, the source gives them in different places.

System: PSMA + PC3-PIP and PSMA-PC3-flu flank xenografts
Conditions: for Biodistribution, Blood / Biodistribution, Flu tumor / Biodistribution, Kidneys / Biodistribution, Lacrimal glands / Biodistribution, Pip (tumor) / Biodistribution, Salivary glands / Biodistribution, Spleen / Biodistribution, Stomach: without cold blocking agent
Protocol: Final compounds were purified by HPLC. […] Organs were harvested 1, 4, and 24 h post-injection (n=5 per time point).

`O=C([O-])CN1CCN(CC(=O)[O-])CCN(CC(=O)NCCCCC(=O)N(CCCC[C@H](NC(=O)N[C@@H](CCC(=O)O)C(=O)O)C(=O)O)Cc2ccc([125I])cc2)CCN(CC(=O)[O-])CC1.[Lu+3]` [[^125I]VK-02-90-Lu] was tested, and the “Biodistribution, Blood” value (1 H) was 1.2 ± 0.4 % injected dose/g, the “Biodistribution, Flu tumor” value (1 H) was 0.9 ± 0.3 % injected dose/g and the “Biodistribution, Kidneys” value (1 H) was 180 ± 36 % injected dose/g. The “Biodistribution, Lacrimal glands” value (1 H) was 4.1 ± 1.3 % injected dose/g, the “Biodistribution, Pip (tumor)” value (1 H) was 51 ± 8.5 % injected dose/g and the “Biodistribution, Salivary glands” value (1 H) was 1.0 ± 0.3 % injected dose/g. The “Biodistribution, Spleen” value (1 H) was 7.4 ± 2.6 % injected dose/g, the “Biodistribution, Stomach” value (1 H) was 0.7 ± 0.4 % injected dose/g and the “Biodistribution, Blood” value (4 H) was 0.06 ± 0.06 % injected dose/g. For the same compound, the “Biodistribution, Flu tumor” value (4 H) was 0.3 ± 0.5 % injected dose/g, the “Biodistribution, Kidneys” value (4 H) was 18.2 ± 4.9 % injected dose/g and the “Biodistribution, Lacrimal glands” value (4 H) was 0.3 ± 0.1 % injected dose/g. The “Biodistribution, Pip (tumor)” value (4 H) was 27.8 ± 17 % injected dose/g, the “Biodistribution, Salivary glands” value (4 H) was 0.1 ± 0.05 % injected dose/g and the “Biodistribution, Spleen” value (4 H) was 0.6 ± 0.2 % injected dose/g. For the same compound, the “Biodistribution, Stomach” value (4 H) was 0.1 ± 0.1 % injected dose/g, the “Biodistribution, Blood” value (24 H) was 0.1 ± 0.01 % injected dose/g and the “Biodistribution, Flu tumor” value (24 H) was 0.03 ± 0.01 % injected dose/g. For the same compound, the “Biodistribution, Kidneys” value (24 H) was 3.3 ± 1.1 % injected dose/g, the “Biodistribution, Lacrimal glands” value (24 H) was 0.06 ± 0.03 % injected dose/g and the “Biodistribution, Pip (tumor)” value (24 H) was 24.0 ± 6.2 % injected dose/g. For the same compound, the “Biodistribution, Salivary glands” value (24 H) was 0.03 ± 0.01 % injected dose/g, the “Biodistribution, Spleen” value (24 H) was 0.1 ± 0.06 % injected dose/g and the “Biodistribution, Stomach” value (24 H) was 0.04 ± 0.01 % injected dose/g. The “clearance from the spleen, salivary glands, lacrimal glands and kidneys” value (compared with [^125I]VK-02-90) was “faster clearance”.
